Source: US20200131227A1, “POLYPEPTIDE WITH TUMOUR BINDING ACTIVITY” (RUPRECHT-KARLS-UNIVERSITÄT HEIDELBERG, priority 2017, published 2020)
Blank lines part the entries; values can stand above or below the molecule they belong to. Where a SMILES comes first, the peptide text is derived from it. Bridges are numbered along the chain shown (N, C = ends). Roman numbers before positions name the chains, in order. Where no end group is shown, it is not given here. The star is where a group is joined. DOTA = O=C(O)CN1CCN(CC(=O)O)CCN(CC(=O)*)CCN(CC(=O)O)CC1

Experiments:
[1] = system: HNSCC tumor sections (HNO97 xenograft, HNO444, HNO399, HNO210); experiment: Histochemical peptide staining of HNSCC tumor cryosections; parameters: species or system human; settings: biotinylated PEG(12)-peptide, 10^-5 M
Method: Staining with the biotinylated PEG(12)-SFITGv6 peptide was performed on acetone-fixed cryosections (5 μm) of tumor tissues after blocking of unspecific binding using the Avidin/Biotin Blocking Kit (SP-2001, Vector Laboratories). A stock solution of the lyophilized peptide was prepared by dilution in 5% aqueous DMSO. Slices were incubated overnight at 4° C. with 10^-5 M peptide concentration in antibody diluent (DAKO). Detection of bound peptide was carried out with the Vectastain Elite ABC Kit (PK-6100, Vector Laboratories) according to manufacturer's protocol. Peptide specificity was ensured by a scrambled (GRD) PEG(12)-SFITGv6 derivate, the somatostatin receptor ligand DOTATOC and negative controls (without peptide or primary antibody) Staining results were assessed by bright field microscopy (BX50) with the SC30 camera and the cell Sense software (all Olympus).
Immunohistochemical stainings were performed by use of the biotinylated PEG(12)-labled peptides (SFITGv6, SFLAP3) on 5 μm acetone-fixed tumor tissue cryosections. To prevent background staining we initially applied the Avidin/Biotin Blocking Kit (SP-2001, Vector Laboratories). The lyophilized peptides were diluted in 5% aqueous DMSO preparing a 1 mM Stock solution. The HNSCC cryosections were incubated with 10^−5 M peptide concentration in antibody diluent (DAKO) at 4° C. overnight. To detect bound peptide the Vectastain Elite ABC Kit (PK-6100, Vector Laboratories) was applied according to manufacturer's protocol. Peptide binding specificity was ensured by use of a peptide derivate (scrambled control) and negative controls (without peptide). Due to instability of the peptide binding staining results were assessed on the same day by bright field microscopy (BX50) with the SC30 camera and the cell Sense software (all Olympus).

HNO97 cells [2] = format: binding, human; settings: 48 h
Method: (§1) For binding studies, 2.5×10^5 to 4×10^5 cells were seeded in 6-well plates and cultivated for 48 hours. Cells were incubated for 60 min with 1 mL serum-free medium containing the ^125I-labeled peptide (see above). For competition experiments, cells were simultaneously exposed to unlabeled (10^-4 M to 10^-10 M) and ^125I-labeled peptides. After three washing steps with PBS (pH 7.4) the cells were lysed with 0.5 mL of 0.3 M NaOH. Experiments concerning the internalization, kinetics and efflux were additionally performed with ^177Lu-DOTA-SFITGv6. To evaluate kinetics and efflux HNO97 cells were incubated for different time intervals (10 min to 480 min) and 60 min, respectively, with ^177Lu-DOTA-SFITGv6 and lysed as described. To continue with the efflux experiment radioactive medium was replaced by non-radioactive medium and cells were incubated again for 60 to 240 min before measuring radioactivity of the cell lysates and the medium. For internalization experiments the cells were exposed to ^177Lu-DOTA-SFITGv6 for different time intervals (10 to 240 min) at 37° C. and 4° C. After three washing steps with PBS the cells were incubated with 1 mL of glycine-HCl 50 mmol/L in PBS (pH 2.8) for 10 min at RT to remove the surface bound activity. Then, cells were washed with 3 mL of ice-cold PBS and lysed as described. Radioactivity was determined in a gamma counter and calculated as percentage of the applied dose per 1×10^6 cells. Experiments were performed three times, and three repetitions per independent experiment were acquired.

Capan-2 cells = experiment: In vitro binding, internalization and efflux on Capan-2 cells; format: cell-based, human
Method: For in vitro binding Studies, 4*10^5-6*10^5 cells were seeded in 6 well plates and cultivated for 24 to 48 hours. At the start of the experiment the medium was replaced with 1 ml serum free medium with a definite amount of radioactive labeled peptide per well. For normal binding assays the cells were incubated for 60 min at 37° C. and afterwards washed 3 times with PBS (pH 7.4). Cells were lysed with 2 times 0.5 ml of a 0.3 M NaOH +0.2% SDS lysis-buffer. Competition assays were performed with ^125I-labeled and unlabelled (10^−6 to 10^−11M) peptide and incubated at the same time for 60 min.
Cells were incubated for 10 to 240 min with ^177Lu-labelled peptide in internalization assays. After the washing steps, the cells were incubated with 1 ml glycine-HCl (1 M, pH 2.2) buffer for 10 min to remove surface bound peptide. Prior to the lyses the cells were washed again. Values are given as percentage of applied dose per 10^6 cells.
The efflux was tested with ^177Lu-labeled peptides. After 60 min incubation the radioactive medium was removed and 1 ml fresh serum-free medium was added. After additional incubation of 60, 120 or 240 min, cell bound activity was measured.

carcinoma cell lines = experiment: In vitro binding of radiolabeled peptides to several carcinoma cell lines; format: cell-based, human; settings: HNO97, HNO399, HNO223, HNO210, HNO199; 60 min
Method: as §1
(§2) For the assessment of the peptide binding capacity in vitro, 2.5-4×10^5 cells were seeded into 6-well plates and cultivated for 48 h. ^125I-labeled peptide resuspended in 1 mL serum-free medium was added and incubated for either 10 min or 60 min with or without different concentrations of unlabeled peptide (10^−4-10^−11 M). Afterwards, cell monolayers were washed three times with 1 mL phosphate-buffered saline (pH 7.4) to remove unbound peptide and the cells were harvested with 1.4 mL lysis buffer (0.3 M NaOH). To evaluate kinetic properties the cells were exposed to ^177Lu-DOTA-labeled peptides for 10, 30, 60, 120, and 240 min, respectively, and lysed as described. For the efflux experiments the cells were incubated with ^177Lu-DOTA-labeled peptides for 60 min. Thereafter, radioactive medium was replaced by non-radioactive medium and cell monolayers were incubated for additional 60, 120, and 240 min and afterwards lysed as described earlier. The internalization was assessed after exposure of the cells to ^177Lu-DOTA-labeled peptides for 10, 30, 60, 120, and 240 min at 37° C. Unspecifically bound peptide was removed from the surface by incubation with 1 M glycine-HCl solution (pH 2.2) for 10 min. The monolayer cell was rinsed with PBS and cells were lysed as described before. Radioactivity was determined in a y-counter and calculated as percentage of the applied dose per 1×10^6 cells. Experiments were performed three times, and three repetitions per independent experiment were acquired.

HNO97 cells [3] = experiment: In vitro binding, kinetics, internalization and efflux on HNO97 cells; format: cell-based, human; settings: continuously increasing, within 480 min
Method: as §1, §2

[4] = target: T1, integrin αvβ6 (ITGαvβ6) as expressed on human carcinoma cell lines and tumor tissue sections (human, UniProt P06756 31-1048; P18564 22-788); experiment: unlabelled peptide competing with the 125I-labelled peptide on Capan-2 cells, 60 min
T1 construct: whole, on cells; also called ITGAVB6; ITGαvβ6-expressing HNO97 cells
T1 sequence (P06756 31-1048, chain 1 of 2): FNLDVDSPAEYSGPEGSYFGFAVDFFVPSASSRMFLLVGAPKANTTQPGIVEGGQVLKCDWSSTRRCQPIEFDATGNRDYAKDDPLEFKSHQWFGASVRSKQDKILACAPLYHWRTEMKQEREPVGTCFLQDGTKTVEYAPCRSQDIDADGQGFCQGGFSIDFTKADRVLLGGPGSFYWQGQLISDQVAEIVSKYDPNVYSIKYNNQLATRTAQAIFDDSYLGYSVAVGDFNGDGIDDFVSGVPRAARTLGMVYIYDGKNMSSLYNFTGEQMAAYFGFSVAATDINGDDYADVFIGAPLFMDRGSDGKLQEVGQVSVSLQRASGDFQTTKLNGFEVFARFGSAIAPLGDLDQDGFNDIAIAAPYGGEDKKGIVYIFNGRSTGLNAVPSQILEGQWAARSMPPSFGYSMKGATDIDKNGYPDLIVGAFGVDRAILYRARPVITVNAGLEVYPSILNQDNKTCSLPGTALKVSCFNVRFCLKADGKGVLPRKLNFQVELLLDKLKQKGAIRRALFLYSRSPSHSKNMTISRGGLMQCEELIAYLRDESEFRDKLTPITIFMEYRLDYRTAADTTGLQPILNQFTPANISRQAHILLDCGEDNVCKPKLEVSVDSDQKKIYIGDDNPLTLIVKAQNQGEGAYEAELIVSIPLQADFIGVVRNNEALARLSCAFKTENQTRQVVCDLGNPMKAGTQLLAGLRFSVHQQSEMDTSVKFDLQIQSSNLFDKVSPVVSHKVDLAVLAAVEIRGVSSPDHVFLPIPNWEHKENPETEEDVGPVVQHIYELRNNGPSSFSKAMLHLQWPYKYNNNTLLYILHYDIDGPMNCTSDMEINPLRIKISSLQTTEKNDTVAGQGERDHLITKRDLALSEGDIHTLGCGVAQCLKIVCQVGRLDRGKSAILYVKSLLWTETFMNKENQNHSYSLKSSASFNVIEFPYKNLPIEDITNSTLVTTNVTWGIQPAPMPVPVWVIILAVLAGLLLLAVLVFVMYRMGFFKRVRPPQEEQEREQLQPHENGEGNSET
T1 sequence (P18564 22-788, chain 2 of 2): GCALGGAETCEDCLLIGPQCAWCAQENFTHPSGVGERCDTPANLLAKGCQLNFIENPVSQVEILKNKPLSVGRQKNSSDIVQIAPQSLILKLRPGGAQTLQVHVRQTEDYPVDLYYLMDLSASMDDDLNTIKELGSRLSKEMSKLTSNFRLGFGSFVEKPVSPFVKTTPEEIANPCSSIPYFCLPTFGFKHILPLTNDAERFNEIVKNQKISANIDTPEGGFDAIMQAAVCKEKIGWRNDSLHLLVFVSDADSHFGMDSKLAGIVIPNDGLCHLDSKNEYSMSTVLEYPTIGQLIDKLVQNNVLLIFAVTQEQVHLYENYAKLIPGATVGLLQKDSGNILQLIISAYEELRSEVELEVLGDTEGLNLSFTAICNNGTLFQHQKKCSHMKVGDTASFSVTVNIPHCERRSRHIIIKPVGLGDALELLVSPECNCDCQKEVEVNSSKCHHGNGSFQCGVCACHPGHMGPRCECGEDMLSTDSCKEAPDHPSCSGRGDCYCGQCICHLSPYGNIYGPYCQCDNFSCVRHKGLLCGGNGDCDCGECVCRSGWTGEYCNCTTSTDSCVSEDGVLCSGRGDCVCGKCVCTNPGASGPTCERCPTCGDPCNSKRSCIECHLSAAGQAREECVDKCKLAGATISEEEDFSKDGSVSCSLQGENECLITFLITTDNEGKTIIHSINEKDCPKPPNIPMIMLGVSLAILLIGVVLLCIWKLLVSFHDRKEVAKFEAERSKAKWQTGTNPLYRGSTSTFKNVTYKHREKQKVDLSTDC

Molecule: C[C@@H](O)[C@@H]1NC(=O)[C@H](CCCCN)NC(=O)[C@@H](Cc2c[nH]c3ccccc23)NC(=O)[C@H](Cc2ccc(O)cc2)NC(=O)[C@@H](NC(=O)[C@@H](Cc2ccccc2)NC(=O)CN2CCN(CC(=O)O)CCN(CC(=O)O)CCN(CC(=O)O)CC2)CSSC[C@@H](C(=O)N[C@H](CO)[C@@H](C)O)NC1=O [DOTATOC, DOTA(0)-Phe(1)-Tyr(3))octreotid, reference compound]
histochemical peptide staining result [1]: could not observe any specific binding

IC50 (HNO97 cells [2]): 45.1 nM
Molecule: CC(C)C[C@H](NC(=O)[C@H](CC(=O)O)NC(=O)CNC(=O)[C@H](CCCNC(=N)N)NC(=O)[C@@H]1CCCN1C(=O)[C@@H](N)CO)C(=O)N[C@@H](C)C(=O)N[C@H](C(=O)N[C@@H](CC(C)C)C(=O)NCC(=O)N[C@@H](Cc1c[nH]cn1)C(=O)N[C@@H](CCCCN)C(=O)N[C@@H](Cc1ccc(O)cc1)C(N)=O)C(C)C [HBP-1, reference compound] (H-SPRGDLAVLGHKY-NH2; N-terminus and C-terminus assumed)

IC50 (HNO97 cells [2]): 18 nM
Molecule: CSCC[C@@H]1NC(=O)[C@H](CCCCN)NC(=O)[C@H](CC(=O)O)NC(=O)CNC(=O)[C@H](CCCNC(=N)N)NC(=O)[C@H](Cc2ccccc2)NC(=O)[C@H]([C@@H](C)O)NC(=O)[C@@H](NC(=O)[C@H](CCCNC(=N)N)NC(=O)CN)CSSC[C@@H](C(=O)N[C@@H](Cc2ccc(O)cc2)C(=O)N2CCC[C@H]2C(=O)N[C@@H](CC(=O)O)C(=O)O)NC(=O)[C@H](CC(C)C)NC(=O)[C@H](CCC(N)=O)NC1=O [SFPF-10] (H-GRCTFRGDKMQLCYPD-OH; disulfide 3-13; N-terminus and C-terminus assumed)

Molecule: H2N-G-R-C1-T-G-R-G-D-L-G-R-L-K-C2-Y-P-D-COOH (H-GRCTGRGDLGRLKCYPD-OH; disulfide 3-14; SMILES CC(C)C[C@@H]1NC(=O)[C@H](CC(=O)O)NC(=O)CNC(=O)[C@H](CCCNC(=N)N)NC(=O)CNC(=O)[C@H]([C@@H](C)O)NC(=O)[C@@H](NC(=O)[C@H](CCCNC(=N)N)NC(=O)CN)CSSC[C@@H](C(=O)N[C@@H](Cc2ccc(O)cc2)C(=O)N2CCC[C@H]2C(=O)N[C@@H](CC(=O)O)C(=O)O)NC(=O)[C@H](CCCCN)NC(=O)[C@H](CC(C)C)NC(=O)[C@H](CCCNC(=N)N)NC(=O)CNC1=O) [SFLAP3K]
cellular uptake of ^125I-labeled variant compared with SFLAP3 (Capan-2 cells; different pancreatic carcinoma cell lines (FIG. 25D)): increased cellular uptake

Molecule: SFLAP1: SFTI derivate with grafted LAP1 octamer RRGDLAFI (GRCTRRGDLAFICYPD; disulfide 3-13 (inferred); also: 125I on the tyrosine in labelled form)
binding capacity of ^125I-labeled peptide across HNSCC cell lines (carcinoma cell lines): 4.1-12.1%

Molecule: ^177Lu-DOTA-SFLAP3K: ^177Lu-DOTA-labeled SFLAP3K ({DOTA}-GRCTGRGDLGRLKCYPD; disulfide 3-14; also: DOTA loaded with 177Lu)
cellular uptake of ^177Lu-DOTA-labeled peptide compared with ^177Lu-DOTA-SFLAP3 (Capan-2 cells; 10 and 60 min): did not result in an increased cellular uptake | efflux (released into the culture medium) (Capan-2 cells; during 4 hours following 60 min exposure): 50%

Molecule: ^177Lu-DOTA-SFPF10: ^177Lu-DOTA-labeled SFPF-10 ({DOTA}-GRCTFRGDKMQLCYPD; disulfide 3-13 (inferred); also: DOTA loaded with 177Lu)
binding of ^177Lu-DOTA-labeled peptide (kinetics) (HNO97 cells [3]): up to 23%

Molecule: biotinylated PEG(12)-SFITGv6: biotinylated PEG(12)-SFITGv6 peptide for histochemical staining (GRCTFRGDLMQLCYPD; disulfide 3-13; also: biotinylated PEG(12) label, site not given here)
histochemical peptide staining result ([1]; listed as biotin-labeled SFITGv6): strong and homogenous tumor cell-specific binding | histochemical peptide staining result ([1]; listed as biotinylated SFITGv6): specific, strong and homogeneous binding

IC50 [4]: 0.76 nM
B1: ^177Lu-DOTA-SFLAP3-trimer (Formula (XXVII)) (peptide)
chain: {DOTA}-GSGSKGSGSKGSGSK
peptide: GRCTGRGDLGRLCYPD
modifications: disulfide II:3-II:13; also: 177Lu chelated by DOTA, three SFLAP3 units attached by oxime ligation, aminooxy-modified, sites not given here, only one SFLAP3 unit listed as chain
notes: Branched trimer; the exact connectivity stands only in the drawing of formula (XXVII), which is not readable here; also called trimerized peptide

IC50 [4]: 2.1 nM
B2: ^177Lu-DOTA-SFLAP3K (peptide)
peptide: {DOTA}-GRCTGRGDLGRLKCYPD
modifications: disulfide 3-14; also: DOTA loaded with 177Lu (or peptide 125I-labelled in competition assay)
notes: DOTA conjugate of SFLAP3K

IC50 [4]: 6.2 nM
B3: ^177Lu-DOTA-SFLAP3 (peptide)
peptide: {DOTA}-GRCTGRGDLGRLCYPD
modifications: disulfide 3-13; also: DOTA loaded with 177Lu (or peptide 125I-labelled in competition assay)
notes: DOTA conjugate of SFLAP3
